{
  "source": "patent US20240269085A1",
  "about": "“CO[…] COMPOUNDS AND PRODUCTION THEREOF” (Esolate Ltd, priority 2019, published 2024)",
  "format_in_all_cases": "physicochemical",
  "key": {"[1]": {"experiment": "Relative bioavailability test: HPLC-UV of CBD concentration in water", "conditions": "after 32 hours elapsed time", "protocol": "Relative bioavailability tests of the cannabinoid ultrafine nanoparticles obtained as described in Example 4 (test samples) as compared to cannabinoid isolates in water (control samples) were performed using a high performance liquid chromatography (HPLC) separator equipped with a UV detector to determine the concentration of CBD in each sample. Control samples were prepared by filtering 1 ml of each sample through a 0.45 μm filter into a 2 ml HPLC vial and 1 ml of methanol (MeOH) was added to each sample vial. HPLC mobile phase was comprised of 65% acetonitrile and 35% water. A flow rate of 1 ml per minute led to the elution of CBD after approximately 4.5 minutes.\nA percentage area was measured after 32 hours elapsed time, which represents the amount of CBD in each sample relative to the background signal created by the MeOH in each sample."}, "[2]": {"experiment": "Visual solubility in simulated stomach conditions (0.155 M HCl with NaCl, 37° C.)", "protocol": "Bioavailability of the cannabinoid ultrafine nanoparticles obtained as described in Example 4 was assessed by visually evaluating the solubility of the fine nanoparticles in simulated stomach conditions. 0.5 g of NaCl was added to a 0.155 M solution of HCl in water to replicate stomach acidic conditions. 10 mg of the fine nanoparticles, 10 mg of the isolates in crystalline form, and 10 mg of the distillates were each placed in vials containing 10 ml of the acidic solution and incubated for 10 hours at 37° C. At the end of the 10-hour period, only minimal solubility of the preparations was observed. Additional 10 ml of the acidic solution were added, and the mixtures were incubated for 10 more hours at 37° C. At the end of the 20-hour period, the cannabinoid nanoparticles dissolved in the acidic solution."}, "Solubility in water": {"experiment": "Solubility in water"}},
  "data": [
    {"smiles": "C=C(C)[C@@H]1CCC(C)=C[C@H]1c1c(O)cc(CCCCC)cc1O", "note": "[CBD isolate, cannabidiol]", "values": [
      {"measurement": "percentage area (amount of CBD relative to MeOH background)", "setting": "[1]", "value": 0.7706, "unit": "%"},
      {"measurement": "solubility in acidic solution", "setting": "[2]; 10 mg in 20 ml, 20 hours at 37° C.", "value": "complete insolubility"},
      {"measurement": "solubility in acid (visual)", "setting": "[2]; acidic solvent resembling stomach conditions", "value": "insoluble"},
      {"measurement": "solubility in water (visual)", "setting": "Solubility in water", "value": "insoluble"}
    ]}
  ]
}
